Like-named read-outs stand apart in the source and are kept apart here.
Tests used:
Dopatrium junceum = experiment: Test Example 5: Wagner pot test, herbicidal effect on Dopatrium junceum; assay type: in vivo
Description: (§1) In a 1/7500 are Wagner pot, sieved paddy field soil (alluvial soil) was charged. Thereafter, in the center portion of the pot, 2 roots of paddy rice (Asahi species) at the 2- to 3-leaf stage were transplanted and 20 seeds of Bulrush per pot were seeded in the surface of the above soil. The pot was submerged at the depth of about 2 cm. The other Dopatrium junceum and umbrella plant were generated naturally. After seeding, when each of the weeds reached the same leaf age as defined in Table 5 given herein, a predetermined concentration of the emulsion prepared according to Example 4 was applied dropwise on the surface of the pot. The test was carried out by repeating the same test three times per area and the results were determined 20 days after the application of the chemicals with regard to the herbicidal effect and chemical injury on paddy rice on the basis of the evaluation index as shown below.
(§2) As the comparative chemicals Molinate, Benthiocarb and DCMU, those commercially available were used.
(§3) In the above table, the inhibition rate was calculated according to the method as described in Test Example 1.

[1] = tested on: Echinochloa crus-galli var. oryzicola; experiment: Test Example 2: concrete pot test on killing effect, Echinochloa crus-galli var. oryzicola; assay type: in vivo; settings: Echinochloa crus-galli, 720 h, granule, 30 days after treatment; for inhibition at 1000 g/ha: 100 g/10 are; for inhibition at 3000 g/ha: 300 g/10 are; for inhibition at 9000 g/ha: 900 g/10 are
Outline: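 Barnyardgrass seeded in flooded alluvial paddy soil (~3 cm water) in concrete pots, with 2.5-leaf Asahi rice transplanted before weed emergence. Granules applied at weed 1-leaf or 5-leaf stage. Dry weights measured 30 days after treatment; inhibition rate calculated versus untreated area.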

[2] = tested on: Echinochloa crus-galli var. oryzicola; experiment: Test Example 1: pot test on selectivity, inhibition of Echinochloa crus-galli var. oryzicola; assay type: in vivo; settings: for inhibition at 750 g/ha / inhibition at 1500 g/ha / inhibition at 3000 g/ha / inhibition at 6000 g/ha / inhibition at 9000 g/ha: Echinochloa crus-galli, 720 h; for inhibition at 1500 g/ha: 150 g/10 are; for inhibition at 3000 g/ha: 300 g/10 are; for inhibition at 6000 g/ha: 600 g/10 are; for inhibition at 9000 g/ha: 900 g/10 are; for activity for killing Echinochloa spp.: trans-form, cis-form and mixtures compared
Outline: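 Paddy soil pots were sown with 50 barnyard grass and 30 rice seeds under about 1 cm flooding, and emulsion at set concentrations was dripped in at the weed's 1-leaf and 5-leaf stages. After 30 days, dry weights of weed and rice gave inhibition versus untreated.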

Acute oral toxicity = settings: in vivo, SD-strain rat
Description: (§4) Acute oral toxicity LD50 value of the compound of the invention measured on SD-strain rat is more than 2,000 mg/Kg for any of the trans-form, cis-form and a mixture thereof in equal amount and further acute fish toxicity TLm value (as defined by Official Standard issued from Ministry of Agriculture & Forestry) measured on young carp is more than 20 ppm for any of the above compounds.

Acute fish toxicity = settings: in vivo; young carp, Official Standard of Ministry of Agriculture & Forestry; read-out: acute fish toxicity TLm
Description: as §4

Bulrush = experiment: Test Example 5: Wagner pot test, herbicidal effect on Bulrush; assay type: in vivo
Description: as §1, §2, §3

paddy rice [3] = experiment: Test Example 3: field test in transplanted paddy field, paddy rice; assay type: in vivo, paddy rice (Asahi species); settings: Oryza sativa; 300 g/10 are, granule, applied 25 days after transplantation, examined 60 days after transplantation
Description: (§5) In a Wagner pot of 1/500 are, paddy field soil (alluvial soil) was placed and 50 seeds of Echinochloa crus-galli var. oryzicola and 30 seeds of paddy rice were seeded in the surface layer of said soil and the submerging depth was kept at about 1 cm. When Echinochloa crus-galli var. oryzicola reached at the one leaf stage and 5-leaf stage, the emulsion of a predetermined concentration, prepared according to Example 4 was added dropwise. After 30 days from the treatment with the chemical, dry weights of Echinochloa crus-galli var. oryzicola and paddy rice were measured and the inhibition rate was calculated with reference to untreated area. [formula]
In a 10 m^2 paddy field, young seedlings of paddy rice (Asahi species) at the 2,5-leaf stage were transplanted 30 days after the puddling the submerging at the depth of 3-5 cm. 25 Days after the transplantation, when Echinochloa crus-galli var. oryzicola reached 4-leaf stage, a predetermined dose of the granule prepared according to Example 1 was applied. Test results were examined 60 days after the transplantation of paddy rice in the similar manner as in Test Example 1.
Comparative chemicals used were all those commercially available and in the case of the comparative chemical 2, CNP was applied 3 days after the transplantation of paddy rice and after 25 days a mixture of Benthiocarb and Simetryne was applied.

paddy rice [4] = experiment: Test Example 4: field test in submerged directly seeded paddy field, paddy rice; assay type: in vivo, paddy rice (Asahi species); settings: Oryza sativa, 504 h; 300 g/10 are, emulsion, 2- to 3-leaf stage, 21 days after application
Description: as §5
(§6) In a 10 m^2 paddy field, 30 g of Echinochloa crus-galli var. oryzicola seeds were seeded at the time of puddling and the depth of submerging was kept at 3-5 cm. 3 Days after the puddling, 50 g of paddy rice at the emergence stage (Asahi species) were seeded. When Echinochloa crus-galli var. oryzicola and paddy rice reached a 2- to 3-leaf stage, a predetermined dose of the emulsion prepared according to Example 4 was applied uniformly by means of a manual spraying machine. Test results were examined 21 days after the application of the chemicals in the similar manner as in Test Example 1.
(§7) The comparative chemical 1 used was that commercially available and the comparative chemical 2 used was prepared according to Example 4.

Umbrella plant = experiment: Test Example 5: Wagner pot test, herbicidal effect on umbrella plant; assay type: in vivo; settings: 20 days after application
Description: as §1, §2, §3

[5] = tested on: Echinochloa crus-galli var. oryzicola; experiment: Test Example 4: field test in submerged directly seeded paddy field, Echinochloa crus-galli var. oryzicola; assay type: in vivo; settings: Echinochloa crus-galli, 504 h; 300 g/10 are, emulsion, 2- to 3-leaf stage, 21 days after application; read-out: Inhibition (%) of E. crus-galli var. oryzicola
Description: as §5, §6, §7

[6] = 300 g/10a, leaf age 2, 20 days after application
[7] = 300 g/10a, leaf age 3, 20 days after application
[8] = 600 g/10a, leaf age 2, 20 days after application
[9] = 600 g/10a, leaf age 3, 20 days after application
[10] = read-out: Inhibition (%) by treatment at 1-leaf stage of E. crus-galli var. oryzicola, E. crus-galli var. oryzicola
[11] = read-out: Inhibition (%) by treatment at 5-leaf stage of E. crus-galli var. oryzicola, E. crus-galli var. oryzicola
[12] = 300 g/10a, leaf age 3-5, 20 days after application
[13] = 600 g/10a, leaf age 3-5, 20 days after application
[14] = 300 g/10a, leaf age 2 (first group of columns)
[15] = 300 g/10a, leaf age 2 (second group of columns)
[16] = 600 g/10a, leaf age 2 (first group of columns)
[17] = 600 g/10a, leaf age 2 (second group of columns)
[18] = 75 g/10 are, 1-leaf stage, dry weight 30 days after treatment, read-out: Inhibition (%) by treatment at 1-leaf stage, E. crus-galli var. oryzicola
[19] = 75 g/10 are, 5-leaf stage, dry weight 30 days after treatment, read-out: Inhibition (%) by treatment at 5-leaf stage, E. crus-galli var. oryzicola
[20] = 1-leaf stage, dry weight 30 days after treatment, read-out: Inhibition (%) by treatment at 1-leaf stage, E. crus-galli var. oryzicola
[21] = 5-leaf stage, dry weight 30 days after treatment, read-out: Inhibition (%) by treatment at 5-leaf stage, E. crus-galli var. oryzicola

Compound	Weed kill degree, Dopatrium junceum (Dopatrium junceum; [6])	Weed kill degree, Dopatrium junceum (Dopatrium junceum; [7])	Weed kill degree, Dopatrium junceum (Dopatrium junceum; [8])	Weed kill degree, Dopatrium junceum (Dopatrium junceum; [9])	inhibition at 1000 g/ha [1, 10]	inhibition at 1000 g/ha [1, 11]	inhibition at 3000 g/ha [1, 10]	inhibition at 3000 g/ha [1, 11]	inhibition at 9000 g/ha [1, 10]	inhibition at 9000 g/ha [1, 11]	LD50 (Acute oral toxicity)	LC50 (Acute fish toxicity)	Weed kill degree, Bulrush (Bulrush; [7])	Weed kill degree, Bulrush (Bulrush; [12])	Weed kill degree, Bulrush (Bulrush; [9])	Weed kill degree, Bulrush (Bulrush; [13])	inhibition at 3000 g/ha (paddy rice [3])	inhibition at 3000 g/ha (paddy rice [4])	Weed kill degree, Umbrella plant (Umbrella plant; [14])	Weed kill degree, Umbrella plant (Umbrella plant; [15])	further results
CC=CCOc1ccc(NC(=O)N(C)C)cc1 [Mixture of trans- and cis-forms 1:1]	5 (100)	5 (100)	5 (100)	5 (100)	100%	100%	100%	100%	100%	100%	> 2000 mg/kg	> 20 µg/mL	5 (100)	5 (100)	5 (100)	5 (100)	0%	0%	5 (100)	5 (100)	Inhibition (%) by treatment at 1-leaf stage, E. crus-galli var. oryzicola ([2]; 75 g/10 are, 1-leaf stage, dry weight 30 days after treatment): 96%; Inhibition (%) by treatment at 5-leaf stage, E. crus-galli var. oryzicola ([2]; 75 g/10 are, 5-leaf stage, dry weight 30 days after treatment): 83%; Weed kill degree, Umbrella plant (Umbrella plant; [16]): 5 (100); Weed kill degree, Umbrella plant (Umbrella plant; [17]): 5 (100); inhibition at 3000 g/ha [5]: 100%
C/C=C\COc1ccc(NC(=O)N(C)C)cc1 [cis-form, 3-(4-cis-crotyloxyphenyl)-1,1-dimethyl urea]	5 (100)	5 (100)	5 (100)	5 (100)	100%	100%	100%	100%	100%	100%	> 2000 mg/kg	> 20 µg/mL	5 (100)	5 (100)	5 (100)	5 (100)	0%	0%	5 (100)	5 (100)	inhibition at 750 g/ha [2, 18]: 95%; inhibition at 750 g/ha [2, 19]: 82%; inhibition at 1500 g/ha [2, 20]: 100%; inhibition at 1500 g/ha [2, 21]: 100%; inhibition at 3000 g/ha [2, 20]: 100%; inhibition at 3000 g/ha [2, 21]: 100%; inhibition at 6000 g/ha [2, 20]: 100%; inhibition at 6000 g/ha [2, 21]: 100%; inhibition at 9000 g/ha [2, 20]: 100%; inhibition at 9000 g/ha [2, 21]: 100%; activity for killing Echinochloa spp. [2]: equivalent; Weed kill degree, Umbrella plant (Umbrella plant; [16]): 5 (100); Weed kill degree, Umbrella plant (Umbrella plant; [17]): 5 (100); inhibition at 3000 g/ha [5]: 100%
C/C=C/COc1ccc(NC(=O)N(C)C)cc1 [trans-form, 3-(4-trans-crotyloxyphenyl)-1,1-dimethyl urea]	5 (100)	5 (100)	5 (100)	5 (100)	100%	100%	100%	100%	100%	100%	> 2000 mg/kg	> 20 µg/mL	5 (100)	5 (100)	5 (100)	5 (100)	0%	0%	5 (100)	5 (100)	inhibition at 750 g/ha [2, 18]: 96%; inhibition at 750 g/ha [2, 19]: 86%; inhibition at 1500 g/ha [2, 20]: 100%; inhibition at 1500 g/ha [2, 21]: 100%; inhibition at 3000 g/ha [2, 20]: 100%; inhibition at 3000 g/ha [2, 21]: 100%; inhibition at 6000 g/ha [2, 20]: 100%; inhibition at 6000 g/ha [2, 21]: 100%; inhibition at 9000 g/ha [2, 20]: 100%; inhibition at 9000 g/ha [2, 21]: 100%; activity for killing Echinochloa spp. [2]: equivalent; Weed kill degree, Umbrella plant (Umbrella plant; [16]): 5 (100); Weed kill degree, Umbrella plant (Umbrella plant; [17]): 5 (100); inhibition at 3000 g/ha [5]: 100%
